Reference: paper PMC10287566, “Signaling-specific inhibition of the CB1 receptor for cannabis use disorder: phase 1 and phase 2a randomized trials” (Nature Medicine, 2023)
Like-named read-outs stand apart in the source and are kept apart here.

Assays:
dogs [1] = test: Blood pressure, heart rate, ECG and body temperature in conscious dogs (GLP); type: in vivo
Method: The dogs had telemetry transmitters for arterial blood pressure, body temperature and ECG measurements. The study was conducted in two parts.

mice [2] = test: THC-induced catalepsy (bar test); type: in vivo
[3] = 91-d repeated oral toxicity study in dogs (GLP); type: in vivo; conditions: both sexes, Beagle, dog, in vivo
dogs [4] = test: 91-d repeated oral toxicity study in dogs (GLP); type: in vivo
rats [5] = test: 91-d repeated oral toxicity study in rats (GLP); type: in vivo; conditions: for change in blood urea level: male rats, week 14
mice [6] = test: Depression-related behavior, sucrose preference test, repeated treatment; type: in vivo; conditions: mice, sucrose preference test, highest dose tested 15 mg/kg
Description: Anxiety-like behaviors were studied in the elevated plus maze (EPM), a rodent model used to evaluate the putative anxiogenic or anxiolytic effects of pharmacological compounds. Depression-related behaviors were studied using the sucrose preference test as a model of anhedonia, one of the cardinal symptoms of depression.
The sucrose preference test was done in the home cage. Two identical bottles, one containing water and the other containing a 2% sucrose solution, were placed in the hopper of each cage. The mice had unlimited access to water and sucrose solutions during the active phase—the dark phase of the light/dark cycle that started at 20:00. The volume of water and of sucrose solution consumed was measured over two […] intervals, the first between 19:00 and 20:30 and the second between 20:30 and 22:00. At each timepoint, the bottles were weighed, and the intake volume was calculated by subtracting the […].
The EPM assessment was done on day 26, and the sucrose preference test was done on day 28.

[7] = target: T1, hERG (human ether-a-go-go-related gene) (Homo sapiens, UniProt Q12809); test: hERG tail current in transfected HEK293 cells (GLP); type: cell-based; conditions: GLP safety pharmacology
T1 construct: expressed in transfected cells; host or cells: HEK293 (stably transfected)
Method: Cells were clamped to −80 mV, depolarized to 0 mV for 5 s allowing activation of hERG current and repolarized to −50 mV for 5 s allowing hERG tail current to deactivate. This experimental procedure was repeated at a frequency of 0.06 Hz. Currents were filtered at 1 kHz and acquired at the frequency of 2 kHz. Amplitude of hERG tail current was measured during the repolarizing pulse from 0 to −50 mV. […] Currents were measured before and after exposure to the test compound. The individual data were collected using pClamp software (release 8.2, AXON Instruments, Molecular Devices).

rats [8] = test: Irwin test and body temperature (GLP); type: in vivo; conditions: rats, GLP
Method: The study involved four groups of six male Wistar rats weighing between 154.0 g and 185.9 g. […] On study day, animals were first scored by the Irwin standardized observation battery, and body temperature was measured. […] Irwin scores and measurement of body temperature were done again at 1, 3, 6, 8 and 24 h after dose.

rats [9] = test: Respiration in unrestrained conscious rats (GLP)
mice [10] = test: THC-induced impairment of pre-pulse inhibition; type: in vivo
[11] = Plasma and brain pharmacokinetics/toxicokinetics in rats; type: in vivo; conditions: for AUC(0-t) / Cmax / half-life / Tmax: rat, plasma; for AUC(0-t) / Cmax / half-life: po
Method: Blood samples were obtained from catheterized animals housed in Culex cages with an automated blood sampler—a robotic system designed to facilitate the sampling of whole blood from awake and freely moving rodents. At the last withdrawal timepoint (48 h after dosing), blood aliquots were manually collected from the femoral catheter. This experiment was performed by the CRO Oncodesign.
Blood was withdrawn by cardiac puncture, and the brains were harvested.
In both experiments, blood samples were centrifuged ~7 min at 1,600g (4 °C), and the plasma was collected. The brain was weighed and frozen on dry ice. Plasma and brain were stored below −70 °C until analysis.
For all studies in rats and the 91-d toxicity study in dogs, the timepoints on days 1, 28 and 91 were: before dose and 1, 3, 5, 8 and 24 h after dose. For the 28-d toxicity study in dogs, the timepoints on days 1 and 28 were: before dose and 1, 2, 4, 8, and 24 h after dose. In both species, only mean pre-dose plasma concentrations were calculated on day 14 for the 28-d study and on day 28 for the 91-d study. For the experiments in rats, blood samples for drug analysis were taken from the satellite animals used for the toxicokinetic (TK) analysis (n = 3 per sex per timepoint and per group). For experiments performed in dogs, blood samples were drawn from the cephalic or jugular veins of all animals (n = 3 per sex per group).
TK analysis was performed separately per sex on mean concentrations by a non-compartmental analysis (NCA). The linearity of exposure was evaluated by comparison of the AUC/dose and Cmax/dose ratios. Possible accumulation was evaluated from the ratio of AUC on day 28 and on day 1 for each dose level and each sex. Samples lower than the limit of quantification (LLQ) values (that is, < 8.00 ng ml^−1 in rats and <20.0 ng ml^−1 in dogs) were not included in the calculation of TK parameters.

[12] = end of drug withdrawal period (week 18)
[13] = Impairment of pre-pulse inhibition
[14] = Sprague Dawley, 1.6 mg/kg, rats po 1.6 mg/kg single
[15] = both sexes, Sprague Dawley SPF, 20 mg/kg, rats po 20 mg/kg single, 91-day tox study
[16] = both sexes, Sprague Dawley SPF, 36 mg/kg, rats po 36 mg/kg single, 28-day tox study
[17] = both sexes, Sprague Dawley SPF, 65 mg/kg, rats po 65 mg/kg single, 91-day tox study
[18] = both sexes, Sprague Dawley, 2 mg/kg, rats po 2 mg/kg single, 28-day tox study
[19] = both sexes, Sprague Dawley, 2 mg/kg, rats po 2 mg/kg single, 91-day tox study

T1 sequence (Q12809 whole entry): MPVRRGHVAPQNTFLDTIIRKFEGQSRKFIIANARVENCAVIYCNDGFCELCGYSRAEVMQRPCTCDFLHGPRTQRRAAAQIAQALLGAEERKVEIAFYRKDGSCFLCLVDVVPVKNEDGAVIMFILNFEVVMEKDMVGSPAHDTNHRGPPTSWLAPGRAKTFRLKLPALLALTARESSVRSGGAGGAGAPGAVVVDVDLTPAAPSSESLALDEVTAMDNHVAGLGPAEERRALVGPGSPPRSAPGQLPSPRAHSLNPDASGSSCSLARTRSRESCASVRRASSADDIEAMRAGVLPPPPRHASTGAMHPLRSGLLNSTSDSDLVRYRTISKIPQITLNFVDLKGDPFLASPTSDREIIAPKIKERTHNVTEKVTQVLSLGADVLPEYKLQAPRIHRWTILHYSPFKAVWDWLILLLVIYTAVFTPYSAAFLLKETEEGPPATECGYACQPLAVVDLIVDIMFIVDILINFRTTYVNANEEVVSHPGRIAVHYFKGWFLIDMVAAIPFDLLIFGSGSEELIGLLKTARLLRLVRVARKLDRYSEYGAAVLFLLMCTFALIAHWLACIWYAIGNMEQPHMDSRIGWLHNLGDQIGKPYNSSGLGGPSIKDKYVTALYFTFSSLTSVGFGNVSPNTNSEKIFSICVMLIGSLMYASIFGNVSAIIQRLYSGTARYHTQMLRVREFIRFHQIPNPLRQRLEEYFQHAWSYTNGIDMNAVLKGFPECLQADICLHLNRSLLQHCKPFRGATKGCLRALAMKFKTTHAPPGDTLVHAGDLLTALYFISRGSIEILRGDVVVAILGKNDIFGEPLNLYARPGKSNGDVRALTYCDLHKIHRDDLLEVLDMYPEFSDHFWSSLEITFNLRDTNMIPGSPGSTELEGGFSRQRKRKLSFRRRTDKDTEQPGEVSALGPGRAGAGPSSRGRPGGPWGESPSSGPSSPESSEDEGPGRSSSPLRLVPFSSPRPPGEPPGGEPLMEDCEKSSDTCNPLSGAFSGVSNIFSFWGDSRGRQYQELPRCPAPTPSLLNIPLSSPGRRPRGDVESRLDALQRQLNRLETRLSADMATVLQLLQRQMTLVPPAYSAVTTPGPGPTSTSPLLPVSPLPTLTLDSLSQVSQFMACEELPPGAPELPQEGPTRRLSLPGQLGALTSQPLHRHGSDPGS

COc1ccc(CO[C@H]2CC[C@@]3(C)C(=CC[C@H]4[C@@H]5CC[C@H](C(C)=O)[C@@]5(C)CC[C@@H]43)C2)cc1 [AEF0117, 3β-(4-methoxybenzyloxy)pregn-5-en-20-one]
adverse effects on blood pressure, heart rate, ECG and body temperature (dogs [1]): did not show any adverse effects | THC-induced catalepsy (mice [2]): inhibited | % Inhibition (mice [2]; Catalepsy): 50% | ID50 (mice [2]; Catalepsy): 0.005 mg/kg | ID100 (mice [2]; Catalepsy): 0.05 mg/kg | NOAEL at 91 d ([3]; 91-d repeated oral): > 65 mg/kg/day | NOAEL at 91 day ([3]; oral, 91-day, highest dose tested): 65 mg/kg/day | change in eosinophil count (dogs [4]; all dose groups, week 5): -41% | change in eosinophil count (dogs [4]; all dose groups, week 14): -54% | change in lymphocyte count (dogs [4]; all dose groups, week 14): -17 to -24% | change in eosinophil count (dogs [4]; [12]): -66% | change in lymphocyte count (dogs [4]; [12]): -19% | change in thymus weight vs vehicle (dogs [4]; end of treatment period): -15 to -24% | change in thymus weight, absolute value (rats [5]; female rats, 65 mg/kg/day, Day 122, vs vehicle): -17% | change in blood urea level (rats [5]; 20 mg): +13% | change in blood urea level (rats [5]; 65 mg): +10% | Overall effect: increase in depression-related behaviors (mice [6]): No | adverse effects on hERG tail current [7]: did not show any adverse effects | adverse effects on behavior (Irwin test) and body temperature (rats [8]): did not show any adverse effects | adverse effects on respiration (rats [9]): did not show any adverse effects | THC impairment in sensory motor gating (PPI) (mice [10]): inhibited | % Inhibition (mice [10]; [13]): 100% | ID50 (mice [10]; [13]): 0.0045 mg/kg | ID100 (mice [10]; [13]): 0.015 mg/kg | AUC(0-t) [11, 14]: 1060 ng·h/mL | Cmax [11, 14]: 116 ng/mL | half-life ([11]; Sprague Dawley, 1.6 mg/kg, rats po 1.6 mg/kg single, read-out: t½ (converted)): 13.9 h | half-life ([11]; Sprague Dawley, rats per os, read-out: half-life): 7.3 to 15.8 h | Tmax ([11]; Sprague Dawley, rats po 1.6 mg/kg single): 4.1 h | Tmax ([11]; Sprague Dawley, rats, oral, corn oil): 3 h | AUC(0-t) ([11]; both sexes, Sprague Dawley SPF, 9 mg/kg, rats po 9 mg/kg single, 28-day tox study): 6150 ng·h/mL | half-life ([11]; both sexes, Sprague Dawley SPF, 9 mg/kg, rats po 9 mg/kg single, 28-day tox study, read-out: t½ (converted)): 11.7 h | AUC(0-t) [11, 15]: 12700 ng·h/mL | Cmax [11, 15]: 1060 ng/mL | half-life ([11]; both sexes, Sprague Dawley SPF, 20 mg/kg, rats po 20 mg/kg single, 91-day tox study, read-out: t½ (converted)): 7.6 h | AUC(0-t) [11, 16]: 16500 ng·h/mL | Cmax [11, 16]: 2060 ng/mL | half-life ([11]; both sexes, Sprague Dawley SPF, 36 mg/kg, rats po 36 mg/kg single, 28-day tox study, read-out: t½ (converted)): 9.8 h | AUC(0-t) [11, 17]: 18200 ng·h/mL | Cmax [11, 17]: 1660 ng/mL | half-life ([11]; both sexes, Sprague Dawley SPF, 65 mg/kg, rats po 65 mg/kg single, 91-day tox study, read-out: t½ (converted)): 10.4 h | Tmax ([11]; both sexes, Sprague Dawley SPF, rats po 9 mg/kg single, 28-day tox study): 3 h | Tmax ([11]; both sexes, Sprague Dawley SPF, rats po 20 mg/kg single, 91-day tox study): 3 h | Tmax ([11]; both sexes, Sprague Dawley SPF, rats po 36 mg/kg single, 28-day tox study): 3 h | Tmax ([11]; both sexes, Sprague Dawley SPF, rats po 65 mg/kg single, 91-day tox study): 3 h | AUC(0-t) [11, 18]: 1450 ng·h/mL | Cmax [11, 18]: 106 ng/mL | half-life ([11]; both sexes, Sprague Dawley, 2 mg/kg, rats po 2 mg/kg single, 28-day tox study, read-out: t½ (converted)): 8 h | AUC(0-t) [11, 19]: 1210 ng·h/mL | Cmax [11, 19]: 86.3 ng/mL | half-life ([11]; both sexes, Sprague Dawley, 2 mg/kg, rats po 2 mg/kg single, 91-day tox study, read-out: t½ (converted)): 7.7 h | Cmax ([11]; both sexes, Sprague Dawley, 9 mg/kg, rats po 9 mg/kg single, 28-day tox study): 578 ng/mL | Tmax ([11]; both sexes, Sprague Dawley, rats po 2 mg/kg single, 28-day tox study): 4 h | time to steady state ([11]; rats and dogs, repeated administration): approximately 14 days
